This note sets out measurements from US5362364A, “Process for producing alkaline paper” (Mitsubishi Paper Mills Limited, priority 1990, dated 1994).

Data set [1] is described as follows: Stockigt sizing degree of paper according to JIS P 8122. Particulars: compared with Sample 3-1 and 4-1 (DMTT) or Sample 7-1 and 8-1 (bromonitroalcohol). Format: physicochemical. On the procedure:
The paper stock immediately after prepared was used to prepare a hand sheet having a basis weight of 60 g/m^2. The resulting sheet was dried at 80° C. for 5 min. in a hot air drier. The sheet thus prepared was called "Sample 1-1".
In the above, the sizing degree was measured by Testing method for Stockigt sizing degree of paper according to JIS P 8122.
The 0.1% addition of the alkylketene dimer should develop the sizing degree of 20-25 sec. unless other chemicals used together interfere with it.
The paper stock immediately after prepared was used to prepare a handmade sheet having a basis weight of 60 g/m^2. The resulting sheet was dried at 80° C. for 5 min. in a hot air drier. The sheet thus prepared was called "Sample 5-1".
(§1) Measurement of the sizing degree, evaluation of the mutagenicity, and ninhydrin reaction in Table 3 and Table 4 were conducted in the same manner as in Table 1 and Table 2.

For data set [2], the system named is Salmonella typyhimurium TA 100. The data set is described as follows: mutagenicity test (reverse mutation test) on hand sheet extract, Ministry of Labor Order No. 261. Format: cell-based. Particulars: compared with Sample 3-1 and 4-1 (DMTT) or Sample 7-1 and 8-1 (bromonitroalcohol).
Method: That is, each hand sheet was subjected to extraction using a mixture of benzene/ethanol (9/1, by volume) at 80° C. for three hours, and the resulting extractant was subjected to a reverse mutation test using Salmonella typyhimurium TA 100 without following a metabolism activating method.
When the number of reverse mutation colony increased to twice or more that in the case of dimethyl sulfoxide used as a control solvent, it was determined "positive".
Data set [3] concerns slime. Description: ninhydrin reaction of the paper stock filtrate (slime formation). The conditions noted are these: for slime inhibiting effect: slimecide added in advance to cationic starch, compared with conventional direct addition. On the procedure: A part of the paper stock as obtained above was stored at 32° C. for 7 days and then, filtered by means of a wire screen. The filtrate was subjected to ninhydrin reaction and the effectiveness of the slimecide controlling agent was evaluated based on the result of the ninhydrin reaction. The filtrate was called "Sample 1-2".
Ninhydrin reaction was effected by adding 0.5 ml of a 1% aqueous solution of nonhydrin to 10 ml of the filtrate, and the result was evaluated depending on the degree of color change of the resulting solution to reddish purple.
A part of the paper stock as obtained above was stored at 32° C. for 7 days and then, filtered by means of a wire net. The filtrate was subjected to ninhydrin reaction and the effectiveness of the slime controlling agent was evaluated based on the result of the ninhydrin reaction. The filtrate was called "Sample 5-2".
as §1

The structures appear in SMILES notation.

Turning to `O=[N+]([O-])C(Br)(CO)CO` [2-bromo-2-nitropropane-1,3-diol], the effect on sizing entry in data set [1] was “nor adversely affects the sizing property”. For the same compound, the safety for man result in data set [2] was “neither harmful to man”. Further, the “amount of slimecide relative to amount added in conventional manner” value in data set [3] (slime inhibition with slimecide added in advance to cationic starch, based on paper stock solid matter) is recorded as “about 1/10”. For the same compound, the slime inhibiting effect entry in data set [3] is on record as “slime formation can be effectively inhibited”.
With `CN1CSC(=S)N(C)C1` [DMTT, 3,5-dimethyltetrahydro-1,3,5-2H-thiadiazine-2-thione], in data set [1], the effect on sizing result is “minimal adverse effect on sizing”. The slime inhibiting effect entry in data set [3] is listed as “excellent slime inhibiting effect”.
